Literature values in patent US20040019012A1, “Ophthalmic antibiotic drug formulations containing a cyclodextrin compound and cetyl pyridinium chloride” (priority 2002, published 2004).

Columns and labels:
[1] = tested on: infective gram-positive bacteria; settings: minimum inhibitory concentration for 90% of the target organisms
[2] = tested on: gram-positive organisms; settings: Staphylococcus, Streptococcus, Enterococcus, Bacillus, Corynebacterium, Chlamydia, Neisseria

## CC(=O)NC[C@H]1CN(c2ccc(N3CCOCC3)c(F)c2)C(=O)O1 [linezolid, (S)-N-[[3-[3-fluoro-4-(4-morpholinyl)phenyl]-2-oxo-5-oxazolidinyl]methyl]acetamide]
[1]
  MIC90: about 4 μg/ml
[2]
  antibacterial activity against gram-positive organisms: strong antibacterial activity
other
  practical limit of concentration in aqueous solution: about 2 mg/ml
